Reference: patent US20230407243A1, “GENETIC PLATFORM TO INVESTIGATE THE FUNCTIONS OF BACTERIAL DRUG EFFLUX PUMPS” (priority 2022, published 2023)
Where two headings read alike, the source gives them in different places.

What was measured:
Assay type in all cases: cell-based, Escherichia coli
[1] = test system: EKO-35 araC::emrAB Pore; test: MIC susceptibility profiling, porinated efflux platform; conditions: for MIC: Escherichia coli, EKO-35 araC::emrAB Pore, technical duplicate, read-out: Minimum inhibitory concentration
Protocol: (§1) For genomic integration of the pore, the fhuA ΔC/Δ4L gene and the adjacent gentamicin resistance cassette were amplified using a high-fidelity polymerase and the fhuA_40_Up/gImS_3680_Low primers (Table 4). Integration of the pore gene was performed as described above. The pore gene was introduced into the intergenic region between the glmS and pstS genes, with gene expression under the control of a constitutive promoter (Kearse, M. et al., 2012). Genomic integrations were verified using PCR (Primers: pstS_520_Up/glmS_3680_Low, Table 4). Successful integrations were transformed with pCP20 to remove the gentamicin resistance cassette as previously described. Activity of the pore was confirmed through susceptibility testing with the large antibiotic vancomycin prior to phenotypic profiling and further susceptibility testing.
(§2) Single colonies were used to inoculate 3 mL of LB followed by incubation at 37° C. for 18 h with aeration at 220 rpm. The bacterial cells were harvested by centrifugation and resuspended in phosphate buffered saline (PBS) ([pH 7.4], 137 mM NaCl (Bioshop), 2.7 mM KCl (Bioshop), 10 mM Na2PO4 (Bioshop) and 1.8 mM K2PO4) to an OD600 nm˜1.0, followed by 1/2000 dilution into MHB II.
(§3) To a 384-well microtiter plate (Corning, untreated polystyrene), 500 nL of compound was dispensed, in duplicate, and serially titrated 2-fold using an Echo 550 acoustic liquid dispenser (Labcyte Inc.). […] As a solvent control, 500 nL of DMSO was applied to wells that contained no compound. Using a multichannel pipette, 50 μL of the prepared bacterial inoculum was applied to each well. To enable background correction post-incubation, the OD600 nm was measured (Biotek Synergy Neo2 microplate reader) prior to incubation. The plates were incubated at 37° C. with aeration at 900 rpm for 18 h. The plates were equilibrated to room temperature and the OD600 nm measured using a BioTek Synergy Neo2 microplate reader. Data was analyzed in both Prism (GraphPad, Version 9.2.0) and Microsoft Excel (Version 16.53). Raw data were input into Microsoft Excel and the pre-incubation OD600 nm measurements were subtracted from the post-incubation OD600 nm measurements. These corrected measurements were input into Prism 9 as a grouped analysis. […] All other MIC values were adjusted accordingly and visualized using the single-color scale grouped heat map function. Identification of compound chemical properties was achieved using DataWarrior (Version 5.5.0). Using PubChem, the SMILES chemical notation for each compound was obtained and compiled in Microsoft Excel. The resulting spreadsheet was input into DataWarrior and properties were calculated from the compound chemical structures.

[2] = test system: EKO-35 araC::mdtBC Pore; test: as above; conditions: for MIC: Escherichia coli, EKO-35 araC::mdtBC Pore, technical duplicate, read-out: Minimum inhibitory concentration
Protocol: as §1, §2, §3

[3] = test system: EKO-35 araC::mdtEF Pore; test: as above; conditions: for MIC: Escherichia coli, Table 14A, porinated, technical duplicate, read-out: Minimum inhibitory concentration, EKO-35 araC::mdtEF Pore
Protocol: as §1, §2, §3

[4] = test system: EKO-35 araC::macAB Pore; test: as above; conditions: for MIC: Escherichia coli, EKO-35 araC::macAB Pore, technical duplicate, read-out: Minimum inhibitory concentration
Protocol: as §1, §2, §3

[5] = test system: EKO-35 araC::acrBD408A Pore; test: as above; conditions: for MIC: Escherichia coli, EKO-35 araC::acrBD408A Pore, technical duplicate, read-out: Minimum inhibitory concentration
Protocol: as §1, §2, §3

[6] = test system: EKO-35 araC::mexCD Pore; test: as above; conditions: for MIC: Escherichia coli, EKO-35 araC::mexCD Pore, technical duplicate, read-out: Minimum inhibitory concentration
Protocol: as §1, §2, §3

[7] = test system: EKO-35 araC::acrD Pore; test: as above; conditions: for MIC: Escherichia coli, Table 14A, porinated, technical duplicate, read-out: Minimum inhibitory concentration, EKO-35 araC::acrD Pore
Protocol: as §1, §2, §3

[8] = test system: EKO-35 araC::acrEF Pore; test: as above; conditions: for MIC: Escherichia coli, Table 14A, porinated, technical duplicate, read-out: Minimum inhibitory concentration, EKO-35 araC::acrEF Pore
Protocol: as §1, §2, §3

[9] = test system: EKO-35 araC::emrKY Pore; test: as above; conditions: for MIC: Escherichia coli, EKO-35 araC::emrKY Pore, technical duplicate, read-out: Minimum inhibitory concentration
Protocol: as §1, §2, §3

[10] = test system: ΔtolC-Pore; test: microbe, parasite or virus in culture; conditions: for MIC: Escherichia coli, 18 h, read-out: Minimum inhibitory concentration, ΔtolC-Pore; for Minimum inhibitory concentration (MIC), Pore ΔtolC: Table 10, with pore, technical duplicate
Protocol: as §1, §2, §3

[11] = test system: wild-type (WT) K-12-Pore; test: microbe, parasite or virus in culture; conditions: Escherichia coli, technical duplicate
Protocol: as §1, §2, §3

[12] = test system: EKO-35 araC::emrAB; test: MIC susceptibility profiling, efflux platform; conditions: for MIC: Escherichia coli, Table 13B, non-porinated, technical duplicate, read-out: Minimum Inhibitory Concentration, EKO-35 araC::emrAB
Protocol: as §2, §3

[13] = test system: EKO-35 araC::emrKY; test: MIC susceptibility profiling, efflux platform; conditions: for MIC: Escherichia coli, Table 13B, non-porinated, technical duplicate, read-out: Minimum Inhibitory Concentration, EKO-35 araC::emrKY
Protocol: as §2, §3

[14] = test system: EKO-35 araC::acrBD408A; test: MIC susceptibility profiling, efflux platform; conditions: for MIC: Escherichia coli, Table 13B, non-porinated, technical duplicate, read-out: Minimum Inhibitory Concentration, EKO-35 araC::acrBD408A
Protocol: as §2, §3

[15] = test system: EKO-35 araC::acrEF; test: MIC susceptibility profiling, efflux platform; conditions: for MIC: Escherichia coli, Table 13A, non-porinated, technical duplicate, read-out: Minimum Inhibitory Concentration, EKO-35 araC::acrEF
Protocol: as §2, §3

[16] = test system: EKO-35 araC::mdtEF; test: MIC susceptibility profiling, efflux platform; conditions: for MIC: Escherichia coli, Table 13A, non-porinated, technical duplicate, read-out: Minimum Inhibitory Concentration, EKO-35 araC::mdtEF
Protocol: as §2, §3

[17] = test system: EKO-35 araC::macAB; test: MIC susceptibility profiling, efflux platform; conditions: for MIC: Escherichia coli, Table 13B, non-porinated, technical duplicate, read-out: Minimum Inhibitory Concentration, EKO-35 araC::macAB
Protocol: as §2, §3

[18] = test system: EKO-35 araC::acrB Pore; test: MIC susceptibility profiling, porinated efflux platform; conditions: Escherichia coli; Table 14A; porinated; technical duplicate; read-out: Minimum inhibitory concentration, EKO-35 araC::acrB Pore
Protocol: as §1, §2, §3

[19] = Table 10, with pore, read-out: Minimum inhibitory concentration (MIC), Pore K-12
[20] = Table 14A, porinated, read-out: Minimum inhibitory concentration, K-12 (WT)-Pore

Row | Structure (SMILES) | MIC [1] [µg/mL] | MIC [2] [µg/mL] | MIC [3] [µg/mL] | MIC [4] [µg/mL] | MIC [5] [µg/mL] | MIC [6] [µg/mL] | MIC [7] [µg/mL] | MIC [8] [µg/mL] | MIC [9] [µg/mL] | MIC [10] [µg/mL] | Minimum inhibitory concentration (MIC), Pore ΔtolC [10] [µg/mL] | MIC [11, 19] [µg/mL] | MIC [11, 20] [µg/mL] | MIC [12] [µg/mL] | MIC [13] [µg/mL] | MIC [14] [µg/mL] | MIC [15] [µg/mL] | MIC [16] [µg/mL] | MIC [17] [µg/mL] | also measured
1 | COc1cccc2c1C(=O)c1c(O)c3c(c(O)c1C2=O)C[C@@](O)(C(C)=O)C[C@@H]3O[C@H]1C[C@H](N)[C@H](O)[C@H](C)O1 [daunorubicin] | 1.56 | 3.12 | 50 | 1.56 | 0.781 | 12.5 | 1.56 | 25 | 0.781 | 0.781 | 0.781 | 100 | 100 | 3.12 | 3.12 | 3.12 | 200 | 200 | 6.25 | Fold changes of MICs ([1]; EKO-35 araC::emrAB Pore compared to EKO-35-Pore): 2 fold; Fold changes of MICs ([2]; EKO-35 araC::mdtBC Pore compared to EKO-35-Pore): 4 fold; efflux pump-mediated resistance vs EKO-35-Pore ([2]; MdtBC with the pore): associated with resistance; Fold changes of MICs ([3]; EKO-35 araC::mdtEF Pore compared to EKO-35-Pore): 64 fold; Fold changes of MICs ([4]; EKO-35 araC::macAB Pore compared to EKO-35-Pore): 2 fold; Fold changes of MICs ([5]; EKO-35 araC::acrBD408A Pore compared to EKO-35-Pore): 1 fold; Fold changes of MICs ([6]; EKO-35 araC::mexCD Pore compared to EKO-35-Pore): 16 fold; Fold changes of MICs ([7]; EKO-35 araC::acrD Pore compared to EKO-35-Pore): 2 fold; Fold changes of MICs ([8]; EKO-35 araC::acrEF Pore compared to EKO-35-Pore): 32 fold; Fold changes of MICs ([9]; EKO-35 araC::emrKY Pore compared to EKO-35-Pore): 1 fold; Fold change of MICs ([12]; EKO-35 araC::emrAB compared to EKO-35): 1 fold; Fold change of MICs ([13]; EKO-35 araC::emrKY compared to EKO-35): 1 fold; Fold change of MICs ([14]; EKO-35 araC::acrBD408A compared to EKO-35): 1 fold; Fold change of MICs ([15]; EKO-35 araC::acrEF compared to EKO-35): 64 fold; Fold change of MICs ([16]; EKO-35 araC::mdtEF compared to EKO-35): 64 fold; Fold change of MICs ([17]; EKO-35 araC::macAB compared to EKO-35): 2 fold
2 | CO[C@H]1/C=C/O[C@@]2(C)Oc3c(C)c(O)c4c(O)c(c(/C=N/N5CCN(C)CC5)c(O)c4c3C2=O)NC(=O)/C(C)=C\C=C\[C@H](C)[C@H](O)[C@@H](C)[C@@H](O)[C@@H](C)[C@H](OC(C)=O)[C@@H]1C [rifampicin] | 0.195 |  | 0.391 | 0.391 | 0.195 | 0.391 | 0.391 | 0.391 | 0.391 | 0.391 | 0.391 | 0.781 | 0.781 | 6.25 | 6.25 | 3.12 | 6.25 | 6.25 | 6.25 | MIC [18]: 1.56 µg/mL
3 | CC[C@H]1OC(=O)[C@H](C)[C@@H](O[C@H]2C[C@@](C)(OC)[C@@H](O)[C@H](C)O2)[C@H](C)[C@@H](O[C@@H]2O[C@H](C)C[C@H](N(C)C)[C@H]2O)[C@](C)(O)C[C@@H](C)C(=O)[C@H](C)[C@@H](O)[C@]1(C)O [erythromycin] | 0.195 | 0.195 | 1.56 | 0.781 | 0.098 | 1.56 | 0.195 | 1.56 | 0.195 | 0.195 | 0.195 | 6.25 | 6.25 | 3.12 | 3.12 | 3.12 | 50 | 50 | 12.5 | efflux pump-mediated resistance vs EKO-35 ([17]; MacAB): specific
